Measured values from US5635391A, “Isolated DNA encoding a nitrilase polypeptide, hosts containing, and expression thereof optionally assisted by a E. coli GroE chaperone polypeptide” (priority 1992, dated 1997).

What was measured:
[1] = test system: Comamonas testosteroni sp.; test: Enzymatic activity of Comamonas testosteroni sp. cells on adiponitrile; assay type: cell-based; details: 52.3 mM adiponitrile, pH 7, 25° C.; 1 U = 1 μmol of product formed per minute
Protocol: A cellular residue containing 13.1 mg of dry weight of cells was suspended in 2 ml of a 52.3 mM solution of adiponitrile in 50 mM potassium phosphate buffer, pH 7. The reaction was carried out at 25° C., with shaking, and the kinetics were followed by sampling. 5-Cyanovaleramide, adipamide, 5-cyanovalerate, adipamate and adipate were determined on each sample by high performance liquid chromatography (HPLC). […] The respective rates of formation of cyanovalerate and adipate were greater than 0.45 and equal to 0.15 U/mg of dry weight of cells (1 U is equal to 1 μmol of product formed per minute).

purified nitrilase = molecular target: T1, purified nitrilase (Comamonas testosteroni, UniProt Q59329); test: Activity of the purified nitrilase as a function of the pH; assay type: biochemical, Comamonas testosteroni sp.; details: substrate 10 mM, 25° C., U = μmol of cyanovalerate formed/h
T1 construct: about 280 kDa oligomer of about 38 kDa subunits
T1 sequence (Q59329 entry or part of it): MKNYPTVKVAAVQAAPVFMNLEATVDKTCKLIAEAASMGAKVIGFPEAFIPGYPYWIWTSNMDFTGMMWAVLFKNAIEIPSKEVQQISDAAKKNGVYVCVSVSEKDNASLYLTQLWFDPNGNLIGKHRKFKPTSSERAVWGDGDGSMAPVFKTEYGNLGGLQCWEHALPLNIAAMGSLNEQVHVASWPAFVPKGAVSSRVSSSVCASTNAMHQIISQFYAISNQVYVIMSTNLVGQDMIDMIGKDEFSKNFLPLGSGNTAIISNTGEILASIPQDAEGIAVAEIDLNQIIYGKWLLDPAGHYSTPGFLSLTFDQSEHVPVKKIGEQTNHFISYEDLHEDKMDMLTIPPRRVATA
Protocol: The purified nitrilase was tested at different pH values on two substrates, adiponitrile and 5-cyanovalerate, under the conditions indicated in Table 2 below.
COMMON CONDITIONS: [substrate]=10 mM; buffer 10 mM; T 25° C.; [nitrilase]=12 μg/ml for cyanovalerate and 3 μg/ml for adiponitrile (fraction, step 6); U (adiponitrile)=μmol of cyanovalerate formed/h, U (cyanovalerate)=μmol of adipate formed/h.

E. coli TG1 = test: Nitrilase activity of control strain E. coli TG1; assay type: cell-based; details: no IPTG, whole cells, DW 15.5 g/l, 1 ml, substrate 50 mM, 25° C.
Protocol: (§1) The activities of these strains, induced or non-induced, are measured on adiponitrile and 5-cyanovalerate at different pH values and are compared with the negative control strains: E. coli TG1, E. coli TG1 (pXL2035) and Pseudomonas putida G2081.
(§2) The cultures are carried out under the conditions described in Table 4. During the exponential growth phase, one of the two cultures of the recombinant strain is induced with 1 mM IPTG; after 2 h at 37° C., this culture is treated.
(§3) The conditions of the specific activity measurements and the results are collated in Table 5.
(§4) COMMON CONDITIONS: [substrate]=50 mM; T=25° C.; buffer 50 mM; kinetics over 90 min for 1 to 3 and over 120 min for 4 to 8.
(§5) ABBREVIATIONS: W=whole cells; S=sonicated cells; Ua=μmols of cyanovalerate produced/h; Ub=μmols of adipate produced/h; AdN=adiponitrile; CVA=5-cyanovalerate. DW=dry weight.

E. coli TG1 pXL2087 = test: Nitrilase activity of recombinant strain E. coli TG1 pXL2087; assay type: cell-based; details: substrate 50 mM; for Activity Ua: DW 0.3 g/l, pH 4.2
Protocol: as §1, §2, §3, §4, §5

E. coli TG1 pXL2035 = test: Nitrilase activity of control strain E. coli TG1 pXL2035; assay type: cell-based; details: no IPTG; whole cells; DW 0.06 g/l; 1 ml; pH 7.0; substrate 50 mM
Protocol: as §1, §2, §3, §4, §5

E. coli TG1 pXL2158 = test: Nitrilase activity of recombinant strain E. coli TG1 pXL2158; assay type: cell-based; details: no IPTG; whole cells; DW 0.24 g/l; 1 ml; pH 7.0; substrate 50 mM
Protocol: as §1, §2, §3, §4, §5

E. coli TG1 pXL2035,2158 = test: Nitrilase activity of recombinant strain E. coli TG1 pXL2035,2158; assay type: cell-based; details: no IPTG; whole cells; DW 0.06 g/l; 1 ml; pH 7.0; substrate 50 mM
Protocol: as §1, §2, §3, §4, §5

P. putida G2081 pDSK519 = test: Nitrilase activity of control strain P. putida G2081 pDSK519; assay type: cell-based, Pseudomonas putida; details: no IPTG; whole cells; DW 0.3 g/l; 1 ml; pH 7.0; substrate 50 mM
Protocol: as §1, §2, §3, §4, §5

E. coli (pXL2087) [2] = test: Batch hydrolysis of adiponitrile with E. coli (pXL2087) in suspension; assay type: cell-based; details: pH 7, 25° C., cells 21 g/l
Protocol: 120 μl or 1068 μmol of adiponitrile were added at 25° C. and with magnetic stirring, at the reaction times 0, 1, 2, 3, 5, 6 and 7 h, to an initial volume of 5 ml of 50 mM phosphate buffer, pH 7, containing the strain E. coli (pXL2087) at an initial concentration of 21 g/l. The reaction was monitored analytically by taking 100 μl samples of the reaction volume every hour.
The mean activities calculated over 30 min after addition of the adiponitrile are collated in Table 6 below.

E. coli (pXL2087) [3] = test: Activity of immobilized and free E. coli (pXL2087) cells on adiponitrile; assay type: cell-based; details: 25° C., pH 7, 50 mM adiponitrile
Protocol: The cells were fixed according to the following protocol:
The gram of cells was suspended in the polyazetidine solution. After homogenization, the resin was poured into the cell suspension. The whole was stirred with a spatula and then left to dry for 18 h, open to the air, under a hood. 4 ml or 1.3 g of biocatalyst were thus collected. The activities of the immobilized and free cells were determined at 25° C. and pH 7 on a 50 mM solution of adiponitrile. They are respectively 30 and 110 μmol of […]/h/mg of cells DW, from which a fixing yield of 26% is deduced.

[4] = test system: E. coli (pXL2087) immobilized on resin; test: Hydrolysis of adiponitrile in a fixed bed reactor with immobilized E. coli (pXL2087); assay type: cell-based; details: 28° C., adiponitrile 50 mM, pH 7, flow rate 3.7 ml/h
Protocol: The half-life is determined in a continuously fed fixed bed reactor under the conditions indicated below:
T 28° C.; catalyst 0.5 g or 2 ml or 85 mg of cells (dry weight); [adiponitrile] 50 mM; phosphate buffer 50 mM, pH 7; flow rate 3.7±0.1 ml/h; column: diameter 1 cm, height 3 cm.
The initial activity of the cells was 1.5 μmol of adipate/h/mg of cells (dry weight). 66% of the initial activity is preserved after 32 days or 770 h.

In the case of N#CCCCCC#N [Adiponitrile, adiponitrile], the “rate of formation of adipate” value [1] is reported as 0.15 U/mg of dry weight of cells, the “rate of formation of cyanovalerate” value [1] is reported as “greater than 0.45 U/mg of dry weight of cells” and the “SPECIFIC ACTIVITY” value (purified nitrilase; Acetate pH 3.0) is reported as 2,300 U/mg of protein. For the same compound, the “SPECIFIC ACTIVITY” value (purified nitrilase; Acetate pH 4.0) was 2,900 U/mg of protein, the “SPECIFIC ACTIVITY” value (purified nitrilase; Acetate pH 4.5) was 2,800 U/mg of protein and the “SPECIFIC ACTIVITY” value (purified nitrilase; Acetate pH 5.0) was 2,700 U/mg of protein. For the same compound, the “SPECIFIC ACTIVITY” value (purified nitrilase; Phosphate pH 6.0) was 2,900 U/mg of protein, the “SPECIFIC ACTIVITY” value (purified nitrilase; Phosphate pH 7.0) was 2,700 U/mg of protein and the “SPECIFIC ACTIVITY” value (purified nitrilase; Phosphate pH 8.0) was 2,800 U/mg of protein. For the same compound, the “Activity Ub” value (E. coli TG1; pH 5.2) was 0 μmols of adipate produced/h, the “Activity Ub” value (E. coli TG1; pH 7.0) was 0 μmols of adipate produced/h and the “Activity Ub” value (E. coli TG1 pXL2087; +IPTG, sonicated cells, DW 1.4 g/l, 2 ml, pH 6.2) was 17 μmols of adipate produced/h. For the same compound, the “Activity Ub” value (E. coli TG1 pXL2087; +IPTG, sonicated cells, DW 1.4 g/l, 2 ml, pH 7.0) was 10 μmols of adipate produced/h, the “Activity Ua” value (E. coli TG1 pXL2087; +IPTG, whole cells, 1 ml) was 159 μmols of cyanovalerate produce and the “Activity Ub” value (E. coli TG1 pXL2087; +IPTG, whole cells, DW 1.4 g/l, 1 ml, pH 4.3) was 38 μmols of adipate produced/h. For the same compound, the “Activity Ub” value (E. coli TG1 pXL2087; +IPTG, whole cells, DW 1.4 g/l, 2 ml, pH 6.2) was 18 μmols of adipate produced/h, the “Activity Ub” value (E. coli TG1 pXL2087; +IPTG, whole cells, DW 1.4 g/l, 2 ml, pH 7.0) was 11 μmols of adipate produced/h and the “Activity Ub” value (E. coli TG1 pXL2087; no IPTG, sonicated cells, DW 1.0 g/l, 1 ml, pH 6.2) was 3 μmols of adipate produced/h. The “Activity Ub” value (E. coli TG1 pXL2087; no IPTG, sonicated cells, DW 1.0 g/l, 1 ml, pH 7.0) was 4 μmols of adipate produced/h, the “Activity Ua” value (E. coli TG1 pXL2087; no IPTG, whole cells, 1 ml) was 75 μmols of cyanovalerate produce and the “Activity Ub” value (E. coli TG1 pXL2087; no IPTG, whole cells, DW 1.2 g/l, 2 ml, pH 4.3) was 16 μmols of adipate produced/h. For the same compound, the “Activity Ub” value (E. coli TG1 pXL2087; no IPTG, whole cells, DW 1.2 g/l, 2 ml, pH 6.2) was 11 μmols of adipate produced/h, the “Activity Ub” value (E. coli TG1 pXL2087; no IPTG, whole cells, DW 1.2 g/l, 2 ml, pH 7.0) was 3.4 μmols of adipate produced/h and the “Activity Ua” value (E. coli TG1 pXL2035) was 0 μmols of cyanovalerate produce. For the same compound, the “Activity Ub” value (E. coli TG1 pXL2035) was 0 μmols of adipate produced/h, the “Activity Ua” value (E. coli TG1 pXL2158) was 270 μmols of cyanovalerate produce and the “Activity Ua” value (E. coli TG1 pXL2035,2158) was 1500 μmols of cyanovalerate produce. For the same compound, the “Activity Ua” value (P. putida G2081 pDSK519) was 0 μmols of cyanovalerate produce, the “SPECIFIC ACTIVITY (mean over 30 min after addition of adiponitrile)” value (E. coli (pXL2087) [2]; reaction time 0.5 h) was 16 μmol of adipate/h x mg of dry cells and the “SPECIFIC ACTIVITY (mean over 30 min after addition of adiponitrile)” value (E. coli (pXL2087) [2]; reaction time 2.5 h) was 15 μmol of adipate/h x mg of dry cells. For the same compound, the “SPECIFIC ACTIVITY (mean over 30 min after addition of adiponitrile)” value (E. coli (pXL2087) [2]; reaction time 5.5 h) was 11 μmol of adipate/h x mg of dry cells, the “SPECIFIC ACTIVITY (mean over 30 min after addition of adiponitrile)” value (E. coli (pXL2087) [2]; reaction time 6.5 h) was 11 μmol of adipate/h x mg of dry cells and the “SPECIFIC ACTIVITY (mean over 30 min after addition of adiponitrile)” value (E. coli (pXL2087) [2]; reaction time 7.7 h) was 15 μmol of adipate/h x mg of dry cells. The “activity of the free cells” value (E. coli (pXL2087) [3]) was 110 μmol of 2-cyanovalerate/h/mg of cells DW, the “activity of the immobilized cells” value (E. coli (pXL2087) [3]) was 30 μmol of 2-cyanovalerate/h/mg of cells DW and the “initial activity of the cells” value [4] was 1.5 μmol of adipate/h/mg of cells (dry weight).
